Each compound was assayed on Plasmodium falciparum 3D7 parasites (assay: P. falciparum 3D7 culture growth assay in erythrocytes (in vitro activity)). Conditions: Plasmodium falciparum, 3D7, Erythrocyte; 48 h, cultures in erythrocytes; read-out: EC50 (in vitro, 3D7).
Type: cell-based
Method: The parasitemia was measured using an LSR II FACS (BD Biosciences) as described.[34],[35] Growth was assessed as % of untreated control. EC50 curves were plotted using Graph Pad Prism.
Transport assays in yeast were done in triplicate biological replicates. At least nine technical replicates were measured around the IC50 value, concentrations with no or full inhibition were determined from at least three technical replicates. […] IC50 and EC50 curves were fitted by the Hill equation with variable slope (Graph Pad Prism 10). Error bars denote ± SEM (for n ≥ 3) or ± range (for n = 2). […] Cytotoxicity was determined from biological triplicates; error is shown as SEM.

Compound | EC50
O=C(/C=C(\O)C(F)(F)C(F)(F)Cl)c1cccnc1 [3d, 5-Chloro-4,4,5,5-tetrafluoro-3-hydroxy-1-(pyridin-3-yl)pent-2-en-1-one] | 0.35 ± 0.03 µM
O=C(/C=C(\O)C(F)(F)C(F)(F)F)c1ccco1 [5a, 4,4,5,5,5-Pentafluoro-1-(furan-2-yl)-3-hydroxypent-2-en-1-one] | 1.98 ± 0.04 µM
O=C(/C=C(\O)C(F)(F)C(F)(F)F)c1ccoc1 [5b, 4,4,5,5,5-Pentafluoro-1-(furan-3-yl)-3-hydroxypent-2-en-1-one] | 0.86 ± 0.08 µM
O=C(/C=C(\O)C(F)(F)C(F)(F)F)c1cccs1 [5c, 4,4,5,5,5-Pentafluoro-3-hydroxy-1-(thiophen-2-yl)pent-2-en-1-one] | 1.92 ± 0.17 µM
O=C(/C=C(\O)C(F)(F)C(F)(F)F)c1ccsc1 [5d, 4,4,5,5,5-Pentafluoro-3-hydroxy-1-(thiophen-3-yl)pent-2-en-1-one] | 1.87 ± 0.15 µM

What follows are compounds tested against T1, PfFNT (Plasmodium falciparum, UniProt O77389) (assay: Fluorescence cross-correlation spectroscopy (FCCS) competition binding to solubilized PfFNT-GFP). Conditions: not given.
T1 construct: expressed in transfected cells; membranes solubilized
T1 sequence (O77389 1-309): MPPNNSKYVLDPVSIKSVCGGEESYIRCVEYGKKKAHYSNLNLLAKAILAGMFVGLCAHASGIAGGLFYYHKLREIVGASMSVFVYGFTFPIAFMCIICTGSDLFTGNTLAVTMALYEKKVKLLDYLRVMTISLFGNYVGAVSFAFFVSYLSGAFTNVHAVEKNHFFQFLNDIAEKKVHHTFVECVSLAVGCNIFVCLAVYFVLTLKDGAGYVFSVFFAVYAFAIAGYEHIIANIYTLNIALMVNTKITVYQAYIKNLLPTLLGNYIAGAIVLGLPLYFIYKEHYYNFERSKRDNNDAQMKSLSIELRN
Method: FCCS measurements were conducted and analyzed as before.[20],[30] Briefly, membranes of stably transfected cells expressing PfFNT with a C-terminal GFP (green) were solubilized. BH267.meta 2 fused with DY647 (red) was used as a tracer to monitor the binding of compounds in a competition assay. Assays were done in […] glass bottom plates (cat. no. PS96B-G175, SWISSCI, Switzerland) using a plate reader (Insight, Evotec Technologies, Germany) fitted with a U-Apo300 40× water immersion lens, NA 1.15 (Olympus, Japan). Excitation was done with an argon-ion laser (488 nm) and a helium–neon laser (633 nm). Fluorescence fluctuations were recorded 10 times for 5 s per sample and fitted using FCS+ plus Analyze (PerkinElmer software). Initially, IC50 values were determined from the concentration of the dual labeled complex titrated against a competitor in a range of 100 pM to 100 μM (Figure S1). Then, Ki values were calculated using the Cheng Prusoff equation[31] based on the previously determined KD value for the BH267.meta-DY647 tracer.[20]

Compound | Ki
O=C(/C=C(\O)C(F)(F)C(F)(F)Cl)c1cccnc1 [3d, 5-Chloro-4,4,5,5-tetrafluoro-3-hydroxy-1-(pyridin-3-yl)pent-2-en-1-one] | 0.037 ± 0.021 µM
FC(F)(F)C(F)(F)c1nc(-c2cccnc2)n[nH]1 [4a, 3-[5-(1,1,2,2,2-Pentafluoroethyl)-1H-1,2,4-triazol-3-yl]pyridine] | 1.61 ± 0.298 µM
FC(F)(F)C(F)(F)c1cc(-c2cccnc2)n[nH]1 [4b, 3-[5-(1,1,2,2,2-Pentafluoroethyl)-1H-pyrazol-3-yl]pyridine] | > 80 µM
O=C(/C=C(\O)C(F)(F)C(F)(F)F)c1ccco1 [5a, 4,4,5,5,5-Pentafluoro-1-(furan-2-yl)-3-hydroxypent-2-en-1-one] | 0.037 ± 0.005 µM
O=C(/C=C(\O)C(F)(F)C(F)(F)F)c1ccoc1 [5b, 4,4,5,5,5-Pentafluoro-1-(furan-3-yl)-3-hydroxypent-2-en-1-one] | 0.072 ± 0.006 µM
O=C(/C=C(\O)C(F)(F)C(F)(F)F)c1cccs1 [5c, 4,4,5,5,5-Pentafluoro-3-hydroxy-1-(thiophen-2-yl)pent-2-en-1-one] | 0.045 ± 0.025 µM
O=C(/C=C(\O)C(F)(F)C(F)(F)F)c1ccsc1 [5d, 4,4,5,5,5-Pentafluoro-3-hydroxy-1-(thiophen-3-yl)pent-2-en-1-one] | 0.085 ± 0.004 µM
O=C(/C=C(\O)C(F)(F)C(F)(F)F)c1ccc(N2CCNCC2)nc1 [7t, 4,4,5,5,5-Pentafluoro-3-hydroxy-1-[6-(piperazin-1-yl)pyridin-3-yl]pent-2-en-1-one] | 0.858 ± 0.129 µM

These compounds were tested against T1, PfFNT (assay: Yeast-based PfFNT 14C-lactate transport assay). Conditions: 14C-lactate transport, PfFNT wild type; read-out: IC50 (transport, yeast).
Type: cell-based
Method: Lactate transport functionality of PfFNT was assayed as described before.[4] Briefly, Saccharomyces cerevisiae W303-1A jen1Δady2Δcells[32] (MATa, can1-100, ade2-loc, his3-11-15, leu2-3,-112, trp1-1-1, ura3-1, jen1::kanMX4, ady2::hphMX4) kindly provided by M. Casal expressing PfFNT was grown at 29 °C to an OD600 of 1 (±0.1). Harvested cells were resuspended to an OD600 of 50 (±5) in 50 mM HEPES/Tris, pH 6.8 (±0.1). 10–15 min prior to the assay, 80 μL of yeast suspension were added to 1 μL of DMSO with or without inhibitor in a 1.5 mL reaction tube at 18 °C. Twenty μL of L-lactate solution spiked with [1-^14C]-L-lactate (Hartmann Analytic) was added yielding a 1 mM inward gradient with 0.04 μCi label. Transport was stopped after 30 s by abrupt dilution with 1 mL of ice-cold water, vacuum filtration via GF/C filter membranes (Whatman), and washing with 7 mL of ice-cold water. The radio label was analyzed by liquid scintillation counting in 3 mL of scintillation cocktail (Rotiszint eco plus, Carl Roth) using a Packard TriCarb 2900 TR (PerkinElmer Inc.).
Transport assays in yeast were done in triplicate biological replicates. At least nine technical replicates were measured around the IC50 value, concentrations with no or full inhibition were determined from at least three technical replicates. EC50-values were determined from 2 to 4 biological replicates. IC50 and EC50 curves were fitted by the Hill equation with variable slope (Graph Pad Prism 10). Error bars denote ± SEM (for n ≥ 3) or ± range (for n = 2). For the EC50-value of 7a the error of the fitting of the curve is given. Cytotoxicity was determined from biological triplicates; error is shown as SEM.

Compound | IC50
O=C(/C=C(\O)C(F)(F)C(F)(F)Cl)c1cccnc1 [3d, 5-Chloro-4,4,5,5-tetrafluoro-3-hydroxy-1-(pyridin-3-yl)pent-2-en-1-one] | 0.18 ± 0.03 µM
FC(F)(F)C(F)(F)c1nc(-c2cccnc2)n[nH]1 [4a, 3-[5-(1,1,2,2,2-Pentafluoroethyl)-1H-1,2,4-triazol-3-yl]pyridine] | 8.44 ± 1.85 µM
FC(F)(F)C(F)(F)c1cc(-c2cccnc2)n[nH]1 [4b, 3-[5-(1,1,2,2,2-Pentafluoroethyl)-1H-pyrazol-3-yl]pyridine] | ~1000 µM
O=C(/C=C(\O)C(F)(F)C(F)(F)F)c1ccco1 [5a, 4,4,5,5,5-Pentafluoro-1-(furan-2-yl)-3-hydroxypent-2-en-1-one] | 0.17 ± 0.06 µM
O=C(/C=C(\O)C(F)(F)C(F)(F)F)c1ccoc1 [5b, 4,4,5,5,5-Pentafluoro-1-(furan-3-yl)-3-hydroxypent-2-en-1-one] | 0.1 ± 0.01 µM
O=C(/C=C(\O)C(F)(F)C(F)(F)F)c1cccs1 [5c, 4,4,5,5,5-Pentafluoro-3-hydroxy-1-(thiophen-2-yl)pent-2-en-1-one] | 0.11 ± 0.01 µM
O=C(/C=C(\O)C(F)(F)C(F)(F)F)c1ccsc1 [5d, 4,4,5,5,5-Pentafluoro-3-hydroxy-1-(thiophen-3-yl)pent-2-en-1-one] | 0.15 ± 0.01 µM
O=C(/C=C(\O)C(F)(F)C(F)(F)F)c1ccc(N2CCNCC2)nc1 [7t, 4,4,5,5,5-Pentafluoro-3-hydroxy-1-[6-(piperazin-1-yl)pyridin-3-yl]pent-2-en-1-one] | 17.3 ± 6.5 µM

Reference: article PMC11513924, “Addressing the Intracellular Vestibule of the Plasmodial Lactate Transporter PfFNT by p-Substituted Inhibitors Amplifies In Vitro Activity” (Journal of Medicinal Chemistry, 2024)
